Where a name gives a salt, the structure may show the parent alone.
Legend:
[1] = biological target: T1, human CCR5 chemokine receptor (Homo sapiens, UniProt P51681); test: CCR5 membrane binding assay (inhibition of RANTES binding); conditions: 125I-RANTES, membranes from NIH 3T3 cells expressing human CCR5
T1 construct: expressed in transfected cells; host or cells: NIH 3T3 cells (murine), membranes
Experimental: CCR5 Membrane Binding Assay:
A high throughput screen utilizing a CCR5 membrane binding assay identifies inhibitors of RANTES binding. This assay utilizes membranes prepared from NIH 3T3 cells expressing the human CCR5 chemokine receptor which have the ability to bind to RANTES, a natural ligand for the receptor. […] Compounds are serially diluted over a wide range of 0.001 ug/ml to 1 ug/ml and tested in triplicates. Reaction cocktails are harvested through glass fiber filters, and washed thoroughly.
In the table, “Ex. No.” stands for “Example Number” and “nM” stands for “nanomolar.”

[2] = Profiling of Vicriviroc and metabolites in plasma, urine and feces, rat; format: in vivo, Rat (Sprague Dawley)
Experimental: (§1) HPLC column was maintained at room temperature for all LC-MS and LC-MS^n experiments. The mobile phase, which consisted of 95% 10-mM ammonium acetate (pH 6.0) containing 5% acetonitrile (A) and 95% acetonitrile and 5% water (B), was maintained at a constant flow rate (1 mL/min). For all LC-MS experiments, the column effluent was split to divert 20-25% into TSQ Quantum (ThermoElectron, San Jose, Calif.) mass spectrometer and the balance into a Flow Scintillation Analyzer (FSA) analyzer.
(§2) All LC-MS and LC-MS/MS experiments were performed using a TSQ mass spectrometer (ThermoElectron, San Jose, Calif.) nominally operated under the conditions listed below:
(§3) Radiochromatograms from study samples were examined to locate radioactive peaks corresponding to metabolites. After correcting for the delay time (0.2-0.5 min), each radiolabelled peak was examined for possible molecular ions related to the drug and/or its putative metabolites.

[3] = Profiling of Vicriviroc and metabolites in plasma, urine and feces, human; format: in vivo
Experimental: as §1, §2, §3

[4] = Profiling of Vicriviroc and metabolites in plasma, urine and feces, monkey; format: in vivo, Monkey (Cynomolgus macaque)
Experimental: as §1, §2, §3

[5] = Excretion of radioactivity after single oral dose of 14C-Vicriviroc, rat; format: in vivo, Rat (Sprague Dawley); conditions: 6 mg/kg single oral, total 0-168 hr
Experimental: (§4) [drawing 410] was synthesized at Schering-Plough Research Institute (Kenilworth, N.J.) and had >97% radiochemical purity.
(§5) Sample Collection: Urine and feces over selected intervals and blood at selected time points were collected from healthy male volunteers, monkeys and rats through 336-hr, 432-hr and 168-hr post dose, respectively. Radioactivity: Total radioactivity was measured using liquid scintillation spectrometer (LSS). Sample Processing for Profiling and Characterization of Metabolites: Sample Pooling: For each species, plasma samples were pooled across subjects/animals by time point. All the other matrices were first pooled for a desired collection interval within each subject/animal and then across subjects/animals to obtain a composite sample containing >90% of the radioactivity excreted in each respective matrix.

[6] = Excretion of radioactivity after single oral dose of 14C-Vicriviroc, monkey; format: in vivo, Monkey (Cynomolgus macaque); conditions: 5 mg/kg single oral, total 0-432 hr
Experimental: as §4, §5

T1 sequence (P51681 whole entry): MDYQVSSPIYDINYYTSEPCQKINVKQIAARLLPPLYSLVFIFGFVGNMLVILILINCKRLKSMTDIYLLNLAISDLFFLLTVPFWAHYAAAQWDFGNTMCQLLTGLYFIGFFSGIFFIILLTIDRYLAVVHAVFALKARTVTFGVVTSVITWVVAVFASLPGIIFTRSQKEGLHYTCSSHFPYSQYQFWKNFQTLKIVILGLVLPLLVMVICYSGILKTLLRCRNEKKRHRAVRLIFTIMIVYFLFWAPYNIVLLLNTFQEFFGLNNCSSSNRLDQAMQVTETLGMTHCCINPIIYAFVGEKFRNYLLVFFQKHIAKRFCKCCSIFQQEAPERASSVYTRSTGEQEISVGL

Cc1cccc(C)c1C(=O)N1CCC(N2CCN([C@@H](C)c3ccc(Cc4ccc(Cl)cc4)cc3)[C@@H](C)C2)CC1 [Example 17]
melting point: 170 °C (dec.)

CC(=O)c1ccc([C@H](C)N2CCN(C3(C)CCN(C(=O)c4c(C)cccc4C)CC3)C[C@@H]2C)cc1 [Example 22]
melting point: 80 to 85 °C

Cc1ccnc(C)c1C(=O)N1CCC(N2CCN(C(c3ccccc3)c3ccccc3)[C@@H](C)C2)CC1 (as salt: hydrochloride) [Example 3C]
melting point: 180 to 188 °C (dec.)

CCC[C@@H](c1ccc(OC(F)(F)F)cc1)N1CCN(C2(C)CCN(C(=O)c3c(C)cccc3C)CC2)C[C@@H]1C [Example 30]
melting point: 237 °C

CCC[C@@H](c1ccc(OC(F)(F)F)cc1)N1CCN(C2(C)CCN(C(=O)c3c(C)ncnc3C)CC2)C[C@@H]1C [Example 30A]
melting point: 241 °C

Cc1cccc(C)c1C(=O)N1CCC(N2CCN([C@@H](C)c3ccc(Cl)cc3)[C@@H](C)C2)CC1 [Example 13]
melting point: 180 °C (dec.)

C[C@H]1CN(C2(C)CCN(C(=O)C3(c4ccc(C#N)cc4)CC3)CC2)CCN1C(c1ccccc1)c1ccccc1 [Example 30E]
melting point: 84 to 90 °C

CCC[C@@H](c1ccc(OC(F)(F)F)cc1)N1CCN(C2(C)CCN(C(=O)c3c(C)cc(NC(=O)NCC)cc3C)CC2)C[C@@H]1C [Example 30B]
melting point: 219 °C

CC[C@@H](c1ccc(OC(F)(F)F)cc1)N1CCN(C2CCN(C(=O)c3c(C)ncnc3C)CC2)C[C@@H]1C [Example 6C]
Ki [1]: 30 nM
melting point: 225 °C

CC(=O)c1ccc([C@H](C)N2CCN(C3CCN(C(=O)c4c(N)cccc4Cl)CC3)C[C@@H]2C)cc1 [Example 18]
melting point: 210 °C

CCNC(=O)Nc1cc(C)c(C(=O)N2CCC(C)(N3CCN(C(c4ccccc4)c4ccccc4)[C@@H](C)C3)CC2)c(C)c1 [Example 30D]
melting point: 177 to 189 °C

Cc1cccc(C)c1C(=O)N1CCC(N2CCN([C@@H](C)c3ccccc3)[C@@H](C)C2)CC1 [Example 15]
melting point: 195 °C

Cc1ccnc(C)c1C(=O)N1CCC(N2CCN(C(c3ccccc3)c3ccccc3)[C@@H](C)C2)CC1 [Example 3C]
Ki [1]: 9.97 nM

Cc1ncnc(C)c1C(=O)N1CCC(C)(N2CCN(C(c3ccccc3)c3ccccc3)[C@@H](C)C2)CC1 [Example 30C]
melting point: 175 to 178 °C

Cc1cccc(C)c1C(=O)N1CCC(N2CCN([C@@H](C)c3ccc(-c4ccccc4)cc3)[C@@H](C)C2)CC1 [Example 16]
Ki [1]: 60 nM
melting point: 190 °C

Cc1cccc(C)c1C(=O)N1CCC(N2CCN([C@@H](C)c3ccc(I)cc3)[C@@H](C)C2)CC1 [Example 11]
Ki [1]: 10.5 nM

Cc1ncnc(C)c1C(=O)N1CCC(C)(N2CCN(C(COC3OC(C(=O)O)C(O)C(O)C3O)c3ccc(C(F)(F)F)cc3)C(C)C2)CC1 (centres unmarked) [Example M35, O-desmethyl-VIC-glucuronide]
circulating drug derived component in plasma ([2]; rat plasma): only detected in trace quantities
% of the dose in urine ([2]; rat urine): less than 1%
circulating drug derived component in plasma ([3]; human plasma): prominent circulating metabolite
% of the dose in urine ([3]; human urine): 11%
circulating drug derived component in plasma ([4]; monkey plasma): prominent circulating metabolite
% of the dose in urine ([4]; monkey urine): 3%

CCNC(=O)N(C)c1cc(C)c(C(=O)N2CCC(C)(N3CCN(C(c4ccccc4)c4ccccc4)[C@@H](C)C3)CC2)c(C)c1 [Example 30H]
melting point: 178 to 188 °C

Cc1ncnc(C)c1C(=O)N1CCC(C)(N2CCN(C(c3ccc(C(F)(F)F)cc3)c3ccc(C(F)(F)F)cc3)[C@@H](C)C2)CC1 [Example 30F]
melting point: 180 to 192 °C

COC[C@@H](c1ccc(C(F)(F)F)cc1)N1CCN(C2(C)CCN(C(=O)c3c(C)ncnc3C)CC2)C[C@@H]1C [^14C-Vicriviroc, 1-[(4,6-dimethyl-5-pyrimidinyl)carbonyl]-4-[4-[2-methoxy-1 (R)-[4-(trifluoromethyl)phenyl]ethyl]-3(S)-methyl-1-piperazinyl]-4-methylpiperidine]
Excretion of radioactivity as % of dose, feces ([5]; rat female): 72.9 % of dose
Excretion of radioactivity as % of dose, urine ([5]; rat female): 15.6 % of dose
Excretion of radioactivity as % of dose, feces ([5]; rat male): 69.1 % of dose
Excretion of radioactivity as % of dose, urine ([5]; rat male): 18.0 % of dose
Excretion of radioactivity as % of dose, feces ([6]; monkey female): 56.4 % of dose
Excretion of radioactivity as % of dose, urine ([6]; monkey female): 25.8 % of dose
Excretion of radioactivity as % of dose, feces ([6]; monkey male): 48.6 % of dose
Excretion of radioactivity as % of dose, urine ([6]; monkey male): 26.3 % of dose

Cc1ncnc(C)c1C(=O)N1CCC(C)(N2CCN([C@@H](Cc3ccccc3)c3ccc(C(F)(F)F)cc3)[C@@H](C)C2)CC1
melting point: 187 to 196 °C
